In patent US20230107941A1, “HEPATITIS B CAPSID ASSEMBLY MODULATORS” (Venatorx Pharmaceuticals, Inc., priority 2019, published 2023):

Columns and labels:
HBV = assay: In vitro antiviral assay: anti-HBV replication in HepAD38 cells (extracellular HBV DNA by QPCR); type: cell-based, hepatitis B virus (genotype D, serotype ayw); settings: Hepatitis B virus, HePAD38, 168 h, 7 days incubation, extracellular HBV DNA by QPCR, read-out: Anti-HBV EC50
Procedure, shortened: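 Read-out is extracellular HBV DNA (copies/mL, QPCR standard curve) after 7-day exposure of tet-free HepAD38 cells to 10-fold dilutions from 1 μM down to 10 pM. Values normalised to DMSO vehicle; EC50 from 4-parameter nonlinear regression, with entecavir validating each run.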

[1] = In vitro cytotoxicity assay (MTT cell viability) in HepG2 cells; type: cell-based, human; settings: human
Procedure, shortened: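 CC50 was derived by 4-parameter fit of viability relative to vehicle controls, measured as MTT formazan absorbance at 492 nm after 3–4 h of reagent and DMSO solubilization. Before that, HepG2 cells seeded overnight at 20,000/well were incubated 7 days at 37°C with compound from 30 μM down to 1.0 nM in half-log steps.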

Row | SMILES | EC50 (HBV) | CC50 at 7 days [1]
1 | Cc1cc(NC(=O)c2c(C)c(C(=O)C(=O)N[C@]3(C)C[C@H](O)C3)n(C)c2-c2ccsc2)ccc1F [Example 181, N-(4-fluoro-3-methylphenyl)-5-(2-(((1s,3s)-3-hydroxy-1-methylcyclobutyl)amino)-2-oxoacetyl)-1,4-dimethyl-2-(thiophen-3-yl)-1H-pyrrole-3-carboxamide] | 500 to 1000 nM | 5000 to 30000 nM
2 | CC[C@]1(NC(=O)C(=O)c2c(C)c(C(=O)Nc3ccc(F)c(C)c3)c(C)n2C)CC[C@H](O)CC1 [Example 4, 5-(2-(((1r,4r)-1-ethyl-4-hydroxycyclohexyl)amino)-2-oxoacetyl)-N-(4-fluoro-3-methylphenyl)-1,2,4-trimethyl-1H-pyrrole-3-carboxamide] | < 50 nM | > 30000 nM
3 | Cc1cc(NC(=O)c2c(C)c(C(=O)C(=O)NCC(C)(C)O)n(C)c2C2CC2)ccc1F [Example 130, 2-cyclopropyl-N-(4-fluoro-3-methylphenyl)-5-(2-((2-hydroxy-2-methylpropyl)amino)-2-oxoacetyl)-1,4-dimethyl-1H-pyrrole-3-carboxamide] | < 50 nM | 5000 to 30000 nM
4 | CCc1c(C(=O)Nc2ccc(F)c(C)c2)c(C)n(C)c1C(=O)C(=O)N[C@]1(C)C[C@H](O)C1 [Example 87, 4-ethyl-N-(4-fluoro-3-methylphenyl)-5-(2-(((1s,3s)-3-hydroxy-1-methylcyclobutyl)amino)-2-oxoacetyl)-1,2-dimethyl-1H-pyrrole-3-carboxamide] | < 50 nM | > 30000 nM
5 | Cc1cc(NC(=O)c2c(C)c(C(=O)C(=O)N[C@@H]3CCCN(C(=O)Nc4ccc(F)c(F)c4)C3)n(C)c2C)ccc1F [Example 35, (R)-N-(3,4-difluorophenyl)-3-(2-(4-((4-fluoro-3-methylphenyl)carbamoyl)-1,3,5-trimethyl-1H-pyrrol-2-yl)-2-oxoacetamido)piperidine-1-carboxamide] | 500 to 1000 nM | 5000 to 30000 nM
6 | Cc1cc(NC(=O)c2c(C)c(C(=O)C(=O)N[C@]3(C)C[C@H](O)C3)n(C)c2-c2cccnc2)ccc1F [Example 150, N-(4-fluoro-3-methylphenyl)-5-(2-(((1s,3s)-3-hydroxy-1-methylcyclobutyl)amino)-2-oxoacetyl)-1,4-dimethyl-2-(pyridin-3-yl)-1H-pyrrole-3-carboxamide] | > 1000 nM | > 30000 nM
7 | Cc1cc(NC(=O)c2c(C)c(C(=O)C(=O)NC3CC(S(C)(=O)=O)C3)n(C)c2C)ccc1F (centres unmarked) [Example 31, N-(4-fluoro-3-methylphenyl)-1,2,4-trimethyl-5-(2-(((1s,3s)-3-(methylsulfonyl)cyclobutyl)amino)-2-oxoacetyl)-1H-pyrrole-3-carboxamide] | < 50 nM | > 30000 nM
8 | CCC1(NC(=O)C(=O)c2c(C)c(C(=O)Nc3ccc(F)c(C)c3)c(C)n2C)CCN(C(C)=O)CC1 [Example 41, 5-(2-((1-acetyl-4-ethylpiperidin-4-yl)amino)-2-oxoacetyl)-N-(4-fluoro-3-methylphenyl)-1,2,4-trimethyl-1H-pyrrole-3-carboxamide] | < 50 nM | > 30000 nM
9 | Cc1c(C(=O)Nc2cccc(S(N)(=O)=O)c2)c(C)n(C)c1C(=O)C(=O)NC(C)(C)C [Example 65, 5-(2-(tert-butylamino)-2-oxoacetyl)-1,2,4-trimethyl-N-(3-sulfamoylphenyl)-1H-pyrrole-3-carboxamide] | > 1000 nM | > 30000 nM
10 | Cc1cc(NC(=O)c2c(C(C)C)c(C(=O)C(=O)N[C@H](C)C(F)(F)F)n(C)c2C)ccc1F [Example 96, (R)-N-(4-fluoro-3-methylphenyl)-4-isopropyl-1,2-dimethyl-5-(2-oxo-2-((1,1,1-trifluoropropan-2-yl)amino)acetyl)-1H-pyrrole-3-carboxamide] | > 1000 nM | > 30000 nM
11 | Cc1cc(NC(=O)c2c(C)c(C(=O)C(=O)N[C@]3(C)CC[C@@H](O)CC3)n(C)c2C)cc(C)c1F [Example 168, N-(4-fluoro-3,5-dimethylphenyl)-5-(2-(((1r,4r)-4-hydroxy-1-methylcyclohexyl)amino)-2-oxoacetyl)-1,2,4-trimethyl-1H-pyrrole-3-carboxamide] | < 50 nM | > 30000 nM
12 | CCc1c(C(=O)Nc2ccc(F)c(C)c2)c(C)n(C)c1C(=O)C(=O)N[C@]1(C)CC[C@H](O)CC1 [Example 7, 4-ethyl-N-(4-fluoro-3-methylphenyl)-5-(2-(((1s,4s)-4-hydroxy-1-methylcyclohexyl)amino)-2-oxoacetyl)-1,2-dimethyl-1H-pyrrole-3-carboxamide] | < 50 nM | > 30000 nM
13 | CCC1(NC(=O)C(=O)c2c(C)c(C(=O)Nc3ccc(F)c(C)c3)c(C)n2C)CCN(S(C)(=O)=O)CC1 [Example 42, 5-(2-((4-ethyl-1-(methylsulfonyl)piperidin-4-yl)amino)-2-oxoacetyl)-N-(4-fluoro-3-methylphenyl)-1,2,4-trimethyl-1H-pyrrole-3-carboxamide] | < 50 nM | > 30000 nM
14 | Cc1c(C(=O)NC23CCC(O)(CC2)CC3)c(C)n(C)c1C(=O)C(=O)Nc1cccnc1 [Example 29, N-(4-hydroxybicyclo[2.2.2]octan-1-yl)-1,2,4-trimethyl-5-(2-oxo-2-(pyridin-3-ylamino)acetyl)-1H-pyrrole-3-carboxamide] | > 1000 nM | > 30000 nM
15 | CCc1c(C(=O)Nc2ccc(F)c(C)c2)c(C)n(C)c1C(=O)C(=O)NC1CCN(c2cccnn2)CC1 [Example 91, 4-ethyl-N-(4-fluoro-3-methylphenyl)-1,2-dimethyl-5-(2-oxo-2-((1-(pyridazin-3-yl)piperidin-4-yl)amino)acetyl)-1H-pyrrole-3-carboxamide] | 50 to 499 nM | > 30000 nM
16 | Cc1c(C(=O)Nc2cccc(C#N)c2)c(C)n(C)c1C(=O)C(=O)N[C@]1(C)CC[C@@H](O)CC1 [Example 170, N-(3-cyanophenyl)-5-(2-(((1r,4r)-4-hydroxy-1-methylcyclohexyl)amino)-2-oxoacetyl)-1,2,4-trimethyl-1H-pyrrole-3-carboxamide] | < 50 nM | > 30000 nM
17 | Cc1cc(NC(=O)c2c(C)c(C(=O)C(=O)N[C@]3(C)CC[C@H](O)CC3)n(C)c2-c2nccs2)ccc1F [Example 176, N-(4-fluoro-3-methylphenyl)-5-(2-(((1s,4s)-4-hydroxy-1-methylcyclohexyl)amino)-2-oxoacetyl)-1,4-dimethyl-2-(thiazol-2-yl)-1H-pyrrole-3-carboxamide] | 50 to 499 nM | > 30000 nM
18 | CC(=O)N1CCC(CO)(NC(=O)C(=O)c2c(C)c(C(=O)Nc3ccc(F)c(C)c3)c(C)n2C)CC1 [Example 72, 5-(2-((1-acetyl-4-(hydroxymethyl)piperidin-4-yl)amino)-2-oxoacetyl)-N-(4-fluoro-3-methylphenyl)-1,2,4-trimethyl-1H-pyrrole-3-carboxamide] | < 50 nM | > 30000 nM
19 | Cc1cc(NC(=O)c2c(C)c(C(=O)C(=O)N[C@]3(C)CC[C@H](O)CC3)n(C)c2C(C)C)ccc1F [Example 111, N-(4-fluoro-3-methylphenyl)-5-(2-(((1s,4s)-4-hydroxy-1-methylcyclohexyl)amino)-2-oxoacetyl)-2-isopropyl-1,4-dimethyl-1H-pyrrole-3-carboxamide] | < 50 nM | > 30000 nM
20 | Cc1cc(NC(=O)c2c(C)c(C(=O)C(=O)N[C@@H]3CC[C@@H](O)C[C@@H]3F)n(C)c2C)ccc1F [Example 14, N-(4-fluoro-3-methylphenyl)-5-(2-(((1R,2S,4R)-2-fluoro-4-hydroxycyclohexyl)amino)-2-oxoacetyl)-1,2,4-trimethyl-1H-pyrrole-3-carboxamide] | < 50 nM | > 30000 nM
21 | Cc1cc(NC(=O)c2c(C)c(C(=O)C(=O)N[C@H]3CN[C@H](C(=O)O)C3)n(C)c2C)ccc1F [Example 173, (2S,4R)-4-(2-(4-((4-fluoro-3-methylphenyl)carbamoyl)-1,3,5-trimethyl-1H-pyrrol-2-yl)-2-oxoacetamido)pyrrolidine-2-carboxylic acid] | 500 to 1000 nM | > 30000 nM
22 | Cc1cc(NC(=O)c2c(C)c(C(=O)C(=O)N[C@]3(C)CC[C@H](O)CC3)n(C)c2C2CCCC2)ccc1F [Example 133, 2-cyclopentyl-N-(4-fluoro-3-methylphenyl)-5-(2-(((1s,4s)-4-hydroxy-1-methylcyclohexyl)amino)-2-oxoacetyl)-1,4-dimethyl-1H-pyrrole-3-carboxamide] | < 50 nM | > 30000 nM
23 | CCC1(NC(=O)C(=O)c2c(C)c(C(=O)Nc3ccc(F)c(C)c3)c(C)n2C)CCN(C(=O)c2cn(C)nc2C(F)F)CC1 [Example 40, 5-(2-((1-(3-(difluoromethyl)-1-methyl-1H-pyrazole-4-carbonyl)-4-ethylpiperidin-4-yl)amino)-2-oxoacetyl)-N-(4-fluoro-3-methylphenyl)-1,2,4-trimethyl-1H-pyrrole-3-carboxamide] | < 50 nM | > 30000 nM
24 | Cc1cc(NC(=O)c2c(C3CC3)c(C(=O)C(=O)NC3CCN(c4cccnn4)CC3)n(C)c2C)ccc1F [Example 103, 4-cyclopropyl-N-(4-fluoro-3-methylphenyl)-1,2-dimethyl-5-(2-oxo-2-((1-(pyridazin-3-yl)piperidin-4-yl)amino)acetyl)-1H-pyrrole-3-carboxamide] | 500 to 1000 nM | > 30000 nM
25 | Cc1c(C(=O)Nc2cccc(Cl)n2)c(C)n(C)c1C(=O)C(=O)N[C@H]1CC[C@@H](O)CC1 [Example 12, N-(6-chloropyridin-2-yl)-5-(2-(((1s,4s)-4-hydroxycyclohexyl)amino)-2-oxoacetyl)-1,2,4-trimethyl-1H-pyrrole-3-carboxamide] | 50 to 499 nM | > 30000 nM
